Results as given in US20230057984A1, “NORMALIZATION OF CULTURE OF CORNEAL ENDOTHELIAL CELLS” (KYOTO PREFECTURAL PUBLIC UNIVERSITY CORPORATION, priority 2011, published 2023).

Tested on: Human corneal endothelial cells
Experiment: Immunostaining and Western blot of Na+/K+-ATPase and ZO-1 in human corneal endothelial cells with SB431542 (FIG. 9A A, B)
Format: cell-based
Conditions: HCEC
Method: For tissue staining examination, cultured MCECs or HCECs were put into Lab-Tek™ Chamber Slides™ (NUNC A/S, Roskilde, Denmark), fixed with 4% formaldehyde for 10 minutes at a room temperature (RT), and incubated for 30 minutes with 1% bovine serum albumin (BSA). Specifically, cultured MCECs or HCECs on the Lab-Tek™ Chamber Slides™ (NUNCA/S, Roskilde, Denmark) were fixed at a room temperature for 10 minutes in 4% formaldehyde, followed by incubation for 30 minutes together with 1% bovine serum albumin (BSA). In order to examine the phenotype of CEC, immunohistochemical analysis was directed to a protein associated with tight junction, ZO-1 (Zymed Laboratories, Inc., South San Francisco, Calif.), a protein associated with the pumping function, Na^+/K^+-ATPase (Upstate Biotec, Inc., Lake Placid, N.Y.), fibronectin (BD, Franklin Lakes, N.J.), and actine. As markers associated with the function of CEC, ZO-1 and Na^+/K^+-ATPase were used; fibronectin and type 1 collagen were used to evaluate the change in a fibroblastic manner; and staining of actine was used to evaluate the phenotype of the cells. Staining of ZO-1, Na^+/K^+-ATPase, type 1 collagen and fibronectin was each performed using 1:200 dilution of ZO-1 polyclonal antibody, Na^+/K^+-ATPase monoclonal antibody, and fibronectin monoclonal antibody. As to secondary antibody, 1:2000 dilution of Alexa Fluor (registered trademark) 488 label or Alexa Fluor (registered trademark) 594 label goat antimouse IgG (Life Technologies) was used. Staining of actine was performed using 1:400 dilution of Alexa Fluor (registered trademark) 488 label phalloidin (Life Technologies). […] Next, the slides were observed through a fluorescence microscope (TCS SP2 AOBS; Leica Microsystems, Welzlar, Germany).
Next, reaction was allowed for 1 hour at a room temperature with ALEXA FLUOR 488 (INVITROGEN (catalog number: A21206)) and ALEXA FLUOR 594 (INVITROGEN (catalog number: A21203)), diluted with TBS-T by 1,000 fold. […] After washing, bands were detected using an ECL-ADVAVCE Western Blotting Detection Kit (GE healthcare Japan (catalog number: RPN2135V)). […]

## NC(=O)c1ccc(-c2nc(-c3ccc4c(c3)OCO4)c(-c3ccccn3)[nH]2)cc1 [SB431542]
1 μM SB431542, in normal culture medium only a subpopulation of cells
  expression of Na+/K+-ATPase and ZO-1 (immunostaining): expression was recognized in all the cells
SB431542
  intracellular localization of Na+/K+-ATPase and ZO-1: allows for the intracellular localization of Na^+/K^+-ATPase and ZO-1 in a cell membrane
SB431542 0.1 μM, 1 μM, 10 μM
  protein expression of Na+/K+-ATPase and ZO-1 (Western blot): makes it possible to maintain the protein expression thereof
